Assays:
Details in all cases: Compound concentration 1000.0 nM
[1] = tested on: ALK tyrosine kinase receptor (Homo sapiens), Q9UM73 [C1156Y]
[2] = molecular target: 5'-AMP-activated protein kinase catalytic subunit alpha-1 (Homo sapiens) (UniProt Q13131)
[3] = molecular target: Aurora kinase C (Homo sapiens) (UniProt Q9UQB9)
[4] = molecular target: Peripheral plasma membrane protein CASK (Homo sapiens) (UniProt O14936)
[5] = molecular target: Dual specificity protein kinase CLK1 (Homo sapiens) (UniProt P49759)
[6] = molecular target: Casein kinase I isoform delta (Homo sapiens) (UniProt P48730)
[7] = molecular target: Epithelial discoidin domain-containing receptor 1 (Homo sapiens) (UniProt Q08345)
[8] = molecular target: Serine/threonine-protein kinase 17A (Homo sapiens) (UniProt Q9UEE5)
[9] = tested on: Epidermal growth factor receptor (Homo sapiens), P00533 [UNDEFINED MUTATION]
[10] = tested on: Epidermal growth factor receptor (Homo sapiens), P00533 [L858R,T790M]
[11] = molecular target: Ephrin type-B receptor 1 (Homo sapiens) (UniProt P54762)
[12] = molecular target: Receptor tyrosine-protein kinase erbB-3 (Homo sapiens) (UniProt P21860)
[13] = molecular target: Mitogen-activated protein kinase 1 (Homo sapiens) (UniProt P28482)
[14] = molecular target: Fibroblast growth factor receptor 1 (Homo sapiens) (UniProt P11362)
[15] = molecular target: Tyrosine-protein kinase Fyn (Homo sapiens) (UniProt P06241)
Chain of Tyrosine-protein kinase Fyn (Homo sapiens) (P06241 2-537 limits assumed): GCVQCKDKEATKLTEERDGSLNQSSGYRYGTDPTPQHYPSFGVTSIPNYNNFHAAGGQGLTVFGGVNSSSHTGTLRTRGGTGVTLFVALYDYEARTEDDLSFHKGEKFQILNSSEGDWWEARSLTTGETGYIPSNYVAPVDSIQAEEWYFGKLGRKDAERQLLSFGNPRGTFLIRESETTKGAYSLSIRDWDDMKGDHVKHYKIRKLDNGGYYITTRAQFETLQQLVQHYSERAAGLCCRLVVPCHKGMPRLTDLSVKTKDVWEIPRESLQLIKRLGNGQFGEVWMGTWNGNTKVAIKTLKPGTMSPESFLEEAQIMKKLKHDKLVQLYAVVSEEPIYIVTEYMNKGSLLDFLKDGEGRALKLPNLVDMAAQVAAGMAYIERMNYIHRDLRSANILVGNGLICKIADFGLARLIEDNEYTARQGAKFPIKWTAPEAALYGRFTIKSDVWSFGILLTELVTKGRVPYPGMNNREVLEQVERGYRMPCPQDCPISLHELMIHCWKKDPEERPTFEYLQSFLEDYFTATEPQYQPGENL

[16] = molecular target: Tyrosine-protein kinase HCK (Homo sapiens) (UniProt P08631)
[17] = molecular target: Inhibitor of nuclear factor kappa-B kinase subunit alpha (Homo sapiens) (UniProt O15111)
[18] = molecular target: Tyrosine-protein kinase JAK1 (Homo sapiens) (UniProt P23458)
[19] = molecular target: Mitogen-activated protein kinase 8 (Homo sapiens) (UniProt P45983)
[20] = molecular target: LIM domain kinase 2 (Homo sapiens) (UniProt P53671)
[21] = molecular target: Hepatocyte growth factor receptor (Homo sapiens) (UniProt P08581)
[22] = molecular target: Dual specificity mitogen-activated protein kinase kinase 7 (Homo sapiens) (UniProt O14733)
Chain of Dual specificity mitogen-activated protein kinase kinase 7 (Homo sapiens) (O14733 whole entry): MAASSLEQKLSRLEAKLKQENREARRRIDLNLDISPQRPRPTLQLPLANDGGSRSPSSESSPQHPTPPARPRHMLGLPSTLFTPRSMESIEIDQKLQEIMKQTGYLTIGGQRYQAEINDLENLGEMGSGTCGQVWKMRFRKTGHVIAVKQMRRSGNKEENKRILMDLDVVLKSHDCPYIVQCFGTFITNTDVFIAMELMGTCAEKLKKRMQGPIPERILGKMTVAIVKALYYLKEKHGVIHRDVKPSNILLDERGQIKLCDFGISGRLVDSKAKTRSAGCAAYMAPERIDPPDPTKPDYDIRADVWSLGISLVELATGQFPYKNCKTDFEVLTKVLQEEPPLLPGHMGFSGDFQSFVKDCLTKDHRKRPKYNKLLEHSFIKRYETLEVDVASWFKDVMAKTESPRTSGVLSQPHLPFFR

[23] = molecular target: Mitogen-activated protein kinase kinase kinase 10 (Homo sapiens) (UniProt Q02779)
[24] = molecular target: Myosin-IIIa (Homo sapiens) (UniProt Q8NEV4)
[25] = molecular target: Serine/threonine-protein kinase Nek1 (Homo sapiens) (UniProt Q96PY6)
Chain of Serine/threonine-protein kinase Nek1 (Homo sapiens) (Q96PY6 whole entry): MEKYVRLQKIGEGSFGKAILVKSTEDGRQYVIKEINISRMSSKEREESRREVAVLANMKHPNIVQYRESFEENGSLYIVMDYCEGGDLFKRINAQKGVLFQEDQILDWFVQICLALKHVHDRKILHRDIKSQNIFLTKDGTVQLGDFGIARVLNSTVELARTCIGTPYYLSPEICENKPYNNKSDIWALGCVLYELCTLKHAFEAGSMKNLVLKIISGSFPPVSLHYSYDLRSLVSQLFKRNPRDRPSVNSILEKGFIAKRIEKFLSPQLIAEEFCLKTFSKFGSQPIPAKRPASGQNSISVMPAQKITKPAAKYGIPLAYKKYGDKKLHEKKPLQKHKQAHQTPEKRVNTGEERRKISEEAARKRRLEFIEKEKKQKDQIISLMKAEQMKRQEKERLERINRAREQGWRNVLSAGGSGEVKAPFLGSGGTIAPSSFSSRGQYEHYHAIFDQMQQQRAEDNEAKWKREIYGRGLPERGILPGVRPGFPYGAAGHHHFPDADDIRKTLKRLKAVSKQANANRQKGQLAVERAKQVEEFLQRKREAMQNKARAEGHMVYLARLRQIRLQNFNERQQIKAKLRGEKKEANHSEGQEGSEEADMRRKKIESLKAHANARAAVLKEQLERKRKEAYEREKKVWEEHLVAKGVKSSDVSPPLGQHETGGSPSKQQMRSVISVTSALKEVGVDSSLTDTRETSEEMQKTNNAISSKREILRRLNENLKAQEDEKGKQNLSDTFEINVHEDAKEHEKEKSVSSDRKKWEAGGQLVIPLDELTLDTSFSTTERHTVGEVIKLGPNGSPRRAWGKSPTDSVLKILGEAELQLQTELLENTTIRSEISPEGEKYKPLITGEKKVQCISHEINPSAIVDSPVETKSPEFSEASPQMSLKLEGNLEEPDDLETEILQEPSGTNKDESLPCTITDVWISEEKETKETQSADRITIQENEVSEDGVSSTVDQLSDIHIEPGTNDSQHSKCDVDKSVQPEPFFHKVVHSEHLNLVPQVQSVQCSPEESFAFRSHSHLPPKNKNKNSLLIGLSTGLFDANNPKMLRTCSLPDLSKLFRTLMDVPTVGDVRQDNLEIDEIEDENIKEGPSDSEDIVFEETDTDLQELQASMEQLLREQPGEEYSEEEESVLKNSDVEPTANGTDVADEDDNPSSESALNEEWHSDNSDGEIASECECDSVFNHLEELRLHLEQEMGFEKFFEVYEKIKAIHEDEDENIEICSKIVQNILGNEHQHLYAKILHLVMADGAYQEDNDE

[26] = molecular target: Mitogen-activated protein kinase 14 (Homo sapiens) (UniProt Q16539)
[27] = molecular target: Serine/threonine-protein kinase PAK 3 (Homo sapiens) (UniProt O75914)
[28] = molecular target: Serine/threonine-protein kinase PAK 6 (Homo sapiens) (UniProt Q9NQU5)
[29] = molecular target: Phosphatidylinositol 4-phosphate 3-kinase C2 domain-containing subunit beta (Homo sapiens) (UniProt O00750)
Chain of Phosphatidylinositol 4-phosphate 3-kinase C2 domain-containing subunit beta (Homo sapiens) (O00750 whole entry, the tested form may be a part, canonical isoform): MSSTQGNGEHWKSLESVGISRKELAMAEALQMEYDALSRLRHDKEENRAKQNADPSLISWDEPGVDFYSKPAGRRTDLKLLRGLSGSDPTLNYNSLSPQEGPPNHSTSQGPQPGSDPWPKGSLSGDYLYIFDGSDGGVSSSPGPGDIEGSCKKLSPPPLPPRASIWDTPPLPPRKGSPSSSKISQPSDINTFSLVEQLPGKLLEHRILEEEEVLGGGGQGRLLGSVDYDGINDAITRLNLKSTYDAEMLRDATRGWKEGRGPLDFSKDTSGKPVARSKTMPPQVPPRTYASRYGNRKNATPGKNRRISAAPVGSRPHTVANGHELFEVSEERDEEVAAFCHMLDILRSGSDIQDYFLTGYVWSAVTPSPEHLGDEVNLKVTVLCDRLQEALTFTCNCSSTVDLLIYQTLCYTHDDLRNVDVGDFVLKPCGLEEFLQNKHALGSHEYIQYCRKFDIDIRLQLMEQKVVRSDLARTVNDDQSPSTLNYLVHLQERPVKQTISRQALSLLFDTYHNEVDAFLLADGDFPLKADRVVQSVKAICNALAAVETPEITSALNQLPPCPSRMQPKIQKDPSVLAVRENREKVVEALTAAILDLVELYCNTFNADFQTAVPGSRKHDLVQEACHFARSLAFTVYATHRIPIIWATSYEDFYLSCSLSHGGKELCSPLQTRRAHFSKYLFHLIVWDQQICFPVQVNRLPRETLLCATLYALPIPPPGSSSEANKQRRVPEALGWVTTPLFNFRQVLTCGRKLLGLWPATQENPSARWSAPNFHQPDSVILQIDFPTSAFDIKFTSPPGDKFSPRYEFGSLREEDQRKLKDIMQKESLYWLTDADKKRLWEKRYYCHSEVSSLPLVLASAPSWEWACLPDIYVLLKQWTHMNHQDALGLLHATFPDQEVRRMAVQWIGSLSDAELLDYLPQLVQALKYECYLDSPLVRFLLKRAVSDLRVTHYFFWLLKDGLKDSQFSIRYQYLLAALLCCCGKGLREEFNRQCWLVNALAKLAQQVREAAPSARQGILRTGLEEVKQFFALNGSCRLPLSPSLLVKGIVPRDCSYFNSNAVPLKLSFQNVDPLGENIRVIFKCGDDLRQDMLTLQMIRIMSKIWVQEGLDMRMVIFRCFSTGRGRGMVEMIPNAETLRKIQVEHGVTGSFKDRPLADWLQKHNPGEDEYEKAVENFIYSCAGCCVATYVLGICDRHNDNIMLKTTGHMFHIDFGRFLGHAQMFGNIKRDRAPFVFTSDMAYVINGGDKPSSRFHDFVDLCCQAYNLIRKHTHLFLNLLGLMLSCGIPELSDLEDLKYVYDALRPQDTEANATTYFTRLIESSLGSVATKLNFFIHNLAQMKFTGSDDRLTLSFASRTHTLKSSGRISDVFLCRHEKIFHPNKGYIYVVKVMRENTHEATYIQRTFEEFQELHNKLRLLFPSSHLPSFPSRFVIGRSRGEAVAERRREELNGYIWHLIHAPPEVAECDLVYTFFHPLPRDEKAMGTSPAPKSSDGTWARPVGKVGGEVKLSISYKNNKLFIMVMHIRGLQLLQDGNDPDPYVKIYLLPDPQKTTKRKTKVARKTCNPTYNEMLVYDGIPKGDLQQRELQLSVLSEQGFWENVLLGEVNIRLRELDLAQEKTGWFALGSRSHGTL

[30] = tested on: Phosphatidylinositol 4,5-bisphosphate 3-kinase catalytic subunit alpha isoform (Homo sapiens), P42336 [I800L]
[31] = molecular target: Phosphatidylinositol 4,5-bisphosphate 3-kinase catalytic subunit beta isoform (Homo sapiens) (UniProt P42338)
[32] = molecular target: 1-phosphatidylinositol 3-phosphate 5-kinase (Homo sapiens) (UniProt Q9Y2I7)
[33] = molecular target: Phosphatidylinositol 4-phosphate 5-kinase type-1 alpha (Homo sapiens) (UniProt Q99755)
[34] = molecular target: Phosphatidylinositol 5-phosphate 4-kinase type-2 gamma (Homo sapiens) (UniProt Q8TBX8)
[35] = molecular target: Protein-tyrosine kinase 2-beta (Homo sapiens) (UniProt Q14289)
[36] = tested on: Proto-oncogene tyrosine-protein kinase receptor Ret (Homo sapiens), P07949 [M918T]
Chain of Proto-oncogene tyrosine-protein kinase receptor Ret (Homo sapiens), P07949 [M918T] (P07949 whole entry M918T): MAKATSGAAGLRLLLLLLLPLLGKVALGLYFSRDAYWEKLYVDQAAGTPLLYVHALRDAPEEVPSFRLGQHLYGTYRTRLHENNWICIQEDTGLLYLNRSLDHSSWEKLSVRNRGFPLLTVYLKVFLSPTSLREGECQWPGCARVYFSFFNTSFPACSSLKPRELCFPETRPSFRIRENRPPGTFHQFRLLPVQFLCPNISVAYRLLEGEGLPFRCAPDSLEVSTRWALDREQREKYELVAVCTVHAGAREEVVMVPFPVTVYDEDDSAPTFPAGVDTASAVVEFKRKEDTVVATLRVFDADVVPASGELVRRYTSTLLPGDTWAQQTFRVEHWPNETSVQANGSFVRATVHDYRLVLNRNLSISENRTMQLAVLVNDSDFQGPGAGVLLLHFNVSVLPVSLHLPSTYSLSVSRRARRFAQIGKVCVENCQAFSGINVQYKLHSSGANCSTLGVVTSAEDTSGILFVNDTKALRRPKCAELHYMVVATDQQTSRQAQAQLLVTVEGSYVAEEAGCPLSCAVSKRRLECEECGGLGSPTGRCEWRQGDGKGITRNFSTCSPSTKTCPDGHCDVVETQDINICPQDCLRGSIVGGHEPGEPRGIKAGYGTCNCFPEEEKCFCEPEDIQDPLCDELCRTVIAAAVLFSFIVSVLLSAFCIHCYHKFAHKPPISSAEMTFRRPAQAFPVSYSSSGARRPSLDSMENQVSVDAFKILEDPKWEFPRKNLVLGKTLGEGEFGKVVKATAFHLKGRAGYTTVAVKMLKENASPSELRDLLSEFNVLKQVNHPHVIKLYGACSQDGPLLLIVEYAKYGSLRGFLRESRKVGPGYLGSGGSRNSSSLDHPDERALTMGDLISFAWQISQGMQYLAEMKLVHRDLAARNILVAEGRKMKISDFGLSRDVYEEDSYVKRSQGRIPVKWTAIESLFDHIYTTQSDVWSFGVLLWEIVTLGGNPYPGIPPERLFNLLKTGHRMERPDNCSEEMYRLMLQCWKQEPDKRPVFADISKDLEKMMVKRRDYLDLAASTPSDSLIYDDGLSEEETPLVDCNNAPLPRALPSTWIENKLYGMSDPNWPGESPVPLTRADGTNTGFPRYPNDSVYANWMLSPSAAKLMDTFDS

[37] = molecular target: Receptor-interacting serine/threonine-protein kinase 4 (Homo sapiens) (UniProt P57078)
[38] = molecular target: Rho-associated protein kinase 2 (Homo sapiens) (UniProt O75116)
[39] = molecular target: Serine/threonine-protein kinase SIK2 (Homo sapiens) (UniProt Q9H0K1)
[40] = molecular target: Tyrosine-protein kinase SYK (Homo sapiens) (UniProt P43405)
[41] = molecular target: Serine/threonine-protein kinase TAO1 (Homo sapiens) (UniProt Q7L7X3)
[42] = molecular target: Serine/threonine-protein kinase TBK1 (Homo sapiens) (UniProt Q9UHD2)
[43] = molecular target: Serine/threonine-protein kinase tousled-like 2 (Homo sapiens) (UniProt Q86UE8)
[44] = molecular target: Tyrosine-protein kinase TXK (Homo sapiens) (UniProt P42681)
[45] = molecular target: Serine/threonine-protein kinase 32C (Homo sapiens) (UniProt Q86UX6)

Which residual activity [1] does the source give for `Cc1c(NC(=O)c2cc(C(N)=O)nc3cc(F)ccc23)c(C(F)(F)F)nn1Cc1ccc(C#N)cc1` [BAY-876] here?
Its residual activity is 98%.

What about the residual activity [2] of the same compound?
Its residual activity is 86%.

And the residual activity [3]?
The residual activity was 90%.

And the residual activity [4]?
Its residual activity is 71%.

What about the residual activity [5] of the same compound?
The residual activity was 86%.

And the residual activity [6]?
The residual activity was 76%.

What about the residual activity [7] of the same compound?
The residual activity was 1.5%.

What about the residual activity [8] of the same compound?
The residual activity was 90%.

What about the residual activity [9] of the same compound?
Its residual activity is 83%.

What about the residual activity [10] of the same compound?
Its residual activity is 93%.

And the residual activity [11]?
Its residual activity is 66%.

What about the residual activity [12] of the same compound?
Its residual activity is 92%.

What about the residual activity [13] of the same compound?
The residual activity was 100%.

What about the residual activity [14] of the same compound?
Its residual activity is 100%.

And the residual activity [15]?
Its residual activity is 94%.

What about the residual activity [16] of the same compound?
Its residual activity is 69%.

What about the residual activity [17] of the same compound?
The residual activity was 65%.

What about the residual activity [18] of the same compound?
Its residual activity is 100%.

What about the residual activity [19] of the same compound?
The residual activity was 80%.

And the residual activity [20]?
The residual activity was 95%.

What about the residual activity [21] of the same compound?
Its residual activity is 100%.

And the residual activity [22]?
Its residual activity is 79%.

And the residual activity [23]?
Its residual activity is 92%.

And the residual activity [24]?
The residual activity was 91%.

And the residual activity [25]?
Its residual activity is 95%.

And the residual activity [26]?
The residual activity was 91%.

And the residual activity [27]?
Its residual activity is 76%.

And the residual activity [28]?
The residual activity was 100%.

What about the residual activity [29] of the same compound?
The residual activity was 81%.

And the residual activity [30]?
The residual activity was 78%.

What about the residual activity [31] of the same compound?
The residual activity was 83%.

What about the residual activity [32] of the same compound?
The residual activity was 92%.

What about the residual activity [33] of the same compound?
Its residual activity is 100%.

And the residual activity [34]?
Its residual activity is 100%.

What about the residual activity [35] of the same compound?
Its residual activity is 95%.

And the residual activity [36]?
Its residual activity is 96%.

And the residual activity [37]?
The residual activity was 92%.

What about the residual activity [38] of the same compound?
The residual activity was 99%.

What about the residual activity [39] of the same compound?
Its residual activity is 100%.

What about the residual activity [40] of the same compound?
The residual activity was 95%.

And the residual activity [41]?
The residual activity was 93%.

What about the residual activity [42] of the same compound?
The residual activity was 70%.

And the residual activity [43]?
Its residual activity is 100%.

What about the residual activity [44] of the same compound?
Its residual activity is 99%.

What about the residual activity [45] of the same compound?
Its residual activity is 69%.

With `Cc1c(NC(=O)c2cc(C(N)=O)nc3cc(F)ccc23)c(C(F)(F)F)nn1Cc1ccc(C(C)(C)C)cc1` [BAY-588] as the compound, how does the residual activity [1] read?
Its residual activity is 100%.

What about the residual activity [2] of the same compound?
Its residual activity is 100%.

And the residual activity [3]?
The residual activity was 100%.

What about the residual activity [4] of the same compound?
Its residual activity is 100%.

What about the residual activity [5] of the same compound?
The residual activity was 62%.

And the residual activity [6]?
Its residual activity is 81%.

What about the residual activity [7] of the same compound?
The residual activity was 95%.

What about the residual activity [8] of the same compound?
Its residual activity is 79%.

What about the residual activity [9] of the same compound?
Its residual activity is 77%.

And the residual activity [10]?
The residual activity was 100%.

And the residual activity [11]?
Its residual activity is 86%.

And the residual activity [12]?
Its residual activity is 94%.

What about the residual activity [13] of the same compound?
The residual activity was 71%.

And the residual activity [14]?
Its residual activity is 93%.

What about the residual activity [15] of the same compound?
The residual activity was 100%.

And the residual activity [16]?
Its residual activity is 92%.

And the residual activity [17]?
The residual activity was 100%.

And the residual activity [18]?
The residual activity was 100%.

What about the residual activity [19] of the same compound?
Its residual activity is 100%.

What about the residual activity [20] of the same compound?
The residual activity was 84%.

And the residual activity [21]?
Its residual activity is 100%.

What about the residual activity [22] of the same compound?
Its residual activity is 100%.

What about the residual activity [23] of the same compound?
The residual activity was 78%.

And the residual activity [24]?
The residual activity was 100%.

What about the residual activity [25] of the same compound?
The residual activity was 97%.

What about the residual activity [26] of the same compound?
The residual activity was 100%.

And the residual activity [27]?
Its residual activity is 100%.

And the residual activity [28]?
Its residual activity is 100%.

And the residual activity [29]?
Its residual activity is 86%.

What about the residual activity [30] of the same compound?
The residual activity was 100%.

What about the residual activity [31] of the same compound?
Its residual activity is 100%.

And the residual activity [32]?
Its residual activity is 100%.

And the residual activity [33]?
Its residual activity is 100%.

What about the residual activity [34] of the same compound?
Its residual activity is 76%.

And the residual activity [35]?
The residual activity was 92%.

And the residual activity [36]?
The residual activity was 96%.

What about the residual activity [37] of the same compound?
The residual activity was 100%.

And the residual activity [38]?
The residual activity was 100%.

What about the residual activity [39] of the same compound?
The residual activity was 100%.

What about the residual activity [40] of the same compound?
The residual activity was 90%.

What about the residual activity [41] of the same compound?
Its residual activity is 100%.

What about the residual activity [42] of the same compound?
The residual activity was 95%.

What about the residual activity [43] of the same compound?
Its residual activity is 100%.

What about the residual activity [44] of the same compound?
Its residual activity is 100%.

What about the residual activity [45] of the same compound?
Its residual activity is 100%.

Reference: ChEMBL document CHEMBL4507267 (2021)
